Experimental findings from patent US20130143739A1, “HERBICIDAL COMPOSITION CONTAINING 4-amino-3-chloro-6-(4-chloro-2-fluoro-3-methoxyphenyl) pyridine-2-carboxylic acid or derivative thereof AND FLUROXYPYR or derivatives thereof” (DOW AGROSCIENCES LLC, priority 2011, published 2013) are described below.

What all share (format): in vivo
For experiment [1], the system named is MEOPA (Melochia parviflora). As to the kind of experiment: Postemergence field trial, weed control in range and pasture. As to conditions: for Obs, observed percent weed control: 14 DAA, Table 1; for % Visual Injury, Obs: 63 DAA. How it is done: (§1) Evaluation of Postemergence Herbicidal Activity of Mixtures in Cereal crops and Range and Pasture.
(§2) Field trials were conducted in cereal crops (winter wheat (TRZAW), spring wheat (TRZAS) and spring barley (HORVU) in Canada, France, Germany, Spain, Denmark, United Kingdom and Belgium, and pasture trials were conducted in Colombia using standard herbicide small plot research methodology. Plot size was typical for small plot research, varying from 1.4 to 2 meters (m) wide by 3 to 10 m long. There were 2-4 replicates per treatment. The soil type ranged from coarse, to medium or heavy in terms of soil texture. Cereal crops were planted, grown and maintained as commercial production fields. Perennial pastures were natural plant and weed infestations as per normal local cultural practices. The cereal and pasture crops were grown using normal cultural practices for fertilization and maintenance to ensure good growth of the crop/pastures and the weeds.
(§3) Treatments were applied by backpack or bicycle sprayers using either compressed air, nitrogen, or carbon dioxide (CO2), at spray pressures from 200 to 300 Kpa. Spray tips were typically Flat Fan Teejet nozzles, such as TJ8003. Spray volumes varied from 200 to 400 liters per hectare (L/ha). MEOPA plant size at application varied from 70 to 80 centimeters (cm) tall active growth at flowering stage. All cereal weeds tested varied from 2 leaf to 8 leaf and often branched or tittered.
(§4) For each treatment, the appropriate formulated product amount to treat the plot area, to achieve the desired application rate, based on unit area of application (hectare), was calculated, measured, and mixed in water prior to applying with the backpack or bicycle sprayer. Treatments were rated as compared to the untreated control plots. The commercial fluroxypyr formulations used were Starane® Ultra (333 gr ae/liter) or Starane® 2 (200 gr ae/liter). Compound I was formulated as a 20% weight acid equivalent wettable granule (WG) or as a 7.5 gr ae/liter EC of the corresponding methyl ester. All Compound (I) treatments were tank mixed with an adjuvant. Compound (I) treatments in the cereal trials contained the safener cloquintocet-mexyl.
(§5) Colby's equation was used to determine the herbicidal effects expected from the mixtures (Colby, S. R. Calculation of the synergistic and antagonistic response of herbicide combinations. Weeds 1967, 15, 20-22.).
(§6) The following equation was used to calculate the expected activity of mixtures containing two active ingredients, A and B:
(§7) A=observed efficacy of active ingredient A at the same concentration as used in the mixture.
(§8) B=observed efficacy of active ingredient B at the same concentration as used in the mixture.

The test system of experiment [2] is CASOB (Cassia obtusifolia). The experiment is described as above. As to conditions: 29-42 DAA. Here is the method:
as §1, §2, §3, §4, §5, §6, §7, §8

The next experiment deals with CIRAR (Cirsium arvense). As to the kind of experiment: Postemergence field trial, weed control in cereal crops. As to conditions: 14 DAA. How it is done:
as §1, §2, §3, §4, §5, §6, §7, §8

For a further experiment, the system named is PAPRH (Papaver rhoeas). The experiment is described as above. Particulars: 28 DAA. How it is done: as §1, §2, §3, §4, §5, §6, §7, §8
The test system of a further experiment is SINAR (Sinapis arvensis). The experiment is described as above. As to conditions: 58 DAA. How it is done: as §1, §2, §3, §4, §5, §6, §7, §8
For experiment [3], the system named is MATCH (Matricaria chamomilla). The experiment is described as above. How it is done: as §1, §2, §3, §4, §5, §6, §7, §8
The test system of the next experiment is STEME (Stellaria media). Described as above. How it is done:
as §1, §2, §3, §4, §5, §6, §7, §8

The test system of another experiment is VIOAR (Viola arvensis). The experiment is described as above. As to conditions: 14 DAA. Here is the method: as §1, §2, §3, §4, §5, §6, §7, §8
In experiment [4] the test system is CHEAL (Chenopodium album). The experiment is described as above. Particulars: 14 DAA. Here is the method: as §1, §2, §3, §4, §5, §6, §7, §8
The subject of a further experiment is LAMPU (Lamium purpureum). Described as above. Particulars: 28 DAA. How it is done:
as §1, §2, §3, §4, §5, §6, §7, §8

Experiment [5] has as its system VEROF (Veronica officinalis). Described as above. As to conditions: 28 DAA. Here is the method: as §1, §2, §3, §4, §5, §6, §7, §8
The test system of experiment [6] is VERHE (Veronica hederifolia). The description is as above. Particulars: 49 DAA. How it is done:
as §1, §2, §3, §4, §5, §6, §7, §8

Experiment [7] relates to AMARE (Amaranthus retroflexus). Described as above. As to conditions: 56 DAA. Here is the method:
as §1, §2, §3, §4, §5, §6, §7, §8

In the next experiment the test system is STAAN (Stachys annua). The experiment is described as above. As to conditions: 14 DAA. Here is the method: as §1, §2, §3, §4, §5, §6, §7, §8
Experiment [8] relates to POLAV (Polygonum aviculare). Described as above. Particulars: 13-27 DAA. Here is the method:
as §1, §2, §3, §4, §5, §6, §7, §8

Setting [9] is: fluroxypyr MHE 120 g ae/ha alone.
Where [10] appears, read: fluroxypyr MHE 150 g ae/ha alone.
The mark [11] stands for this setting: fluroxypyr MHE 140 g ae/ha alone.
The mark [12] stands for this setting: fluroxypyr MHE 77 g ae/ha alone.

Where “and” joins values, the source holds several entries; their conditions need not be identical. Equal entries are not always repeated.

Turning to `CCCCCCC(C)OC(=O)COc1nc(F)c(Cl)c(N)c1Cl` (centres unmarked) [Fluroxypyr (MHE), Fluroxypyr Methylheptyl Ester, reference compound], the “Obs, observed percent weed control” value in experiment [1] (setting [9]) came out at 3.5%. For the same compound, the “% Visual Injury, Obs” value is 3% and 8% in experiment [1] (setting [9]); 18% in [2] (setting [9]); 10% in the experiment on CIRAR (Cirsium arvense) (setting [10]); 5% with PAPRH (Papaver rhoeas) (setting [11]); 13% with SINAR (Sinapis arvensis) (setting [11]); 47% in experiment [3] (27 DAA, fluroxypyr MHE 200 g ae/ha alone). Also, the “% Visual Injury, Obs” value in [3] (54 DAA, fluroxypyr MHE 150 g ae/ha alone) was found to be 0%; with STEME (Stellaria media) (28 DAA, fluroxypyr MHE 200 g ae/ha alone), 27%; in the experiment with STEME (Stellaria media) (30 DAA, fluroxypyr MHE 80 g ae/ha alone) it was 81%; in the experiment with STEME (Stellaria media) (76 DAA, fluroxypyr MHE 110 g ae/ha alone, Table 5), 67%; in the experiment with STEME (Stellaria media) (76 DAA, fluroxypyr MHE 140 g ae/ha alone, Table 3) it was 77%; in the experiment on VIOAR (Viola arvensis) (setting [11]) it was 50%. In addition, the “% Visual Injury, Obs” value is given as 10% in [4] (setting [10]); 4% in the experiment with LAMPU (Lamium purpureum) (fluroxypyr MHE 50 g ae/ha alone); 0% in experiment [5] (setting [11]); 42% in experiment [6] (fluroxypyr MHE 110 g ae/ha alone); 20% in experiment [7] (setting [12]); 30% in the experiment with STAAN (Stachys annua) (setting [10]). Besides, the “% Visual Injury, Obs” value in [8] (setting [12]) is 25%; in [8] (fluroxypyr MHE 80 g ae/ha alone), 61%.

Consider `COC(=O)c1nc(-c2ccc(Cl)c(OC)c2F)cc(N)c1Cl` [XDE-729 (Methyl Ester), halauxifen-methyl], for which the “Obs, observed percent weed control” value in experiment [1] (XDE-729 methyl ester 17.5 g ae/ha alone) is 48.5%; in experiment [1] (XDE-729 methyl ester 35 g ae/ha alone) it was 63.1%. Besides, the “% Visual Injury, Obs” value in [1] (XDE-729 Me 18 g ae/ha alone) turned out to be 25%; in experiment [1] (XDE-729 Me 35 g ae/ha alone), 42%; in experiment [2] (XDE-729 Me 18 g ae/ha alone) it was 6%; in experiment [2] (XDE-729 Me 35 g ae/ha alone) it was 16%; with PAPRH (Papaver rhoeas) (XDE-729 Me 6 g ae/ha alone), 54%; in the experiment with SINAR (Sinapis arvensis) (XDE-729 Me 6 g ae/ha alone) it was 0%. The “% Visual Injury, Obs” value stood at 0% in experiment [3] (54 DAA, XDE-729 Me 6 g ae/ha alone); 58% with STEME (Stellaria media) (30 DAA, XDE-729 Me 2 g ae/ha alone); 19% in the experiment with STEME (Stellaria media) (76 DAA, XDE-729 Me 4.5 g ae/ha alone, Table 3); 22% in the experiment with STEME (Stellaria media) (76 DAA, XDE-729 Me 4.5 g ae/ha alone, Table 5); 29% in the experiment on STEME (Stellaria media) (76 DAA, XDE-729 Me 6 g ae/ha alone, Table 3); 38% in the experiment on STEME (Stellaria media) (76 DAA, XDE-729 Me 6 g ae/ha alone, Table 5). In addition, the “% Visual Injury, Obs” value with VIOAR (Viola arvensis) (XDE-729 Me 6 g ae/ha alone) is 10%; in the experiment on LAMPU (Lamium purpureum) (XDE-729 Me 2 g ae/ha alone), 73%; in experiment [5] (XDE-729 Me 6 g ae/ha alone), 0%; in experiment [6] (XDE-729 Me 6 g ae/ha alone) it was 23%; in experiment [7] (XDE-729 Me 5 g ae/ha alone), 50%; in experiment [8] (XDE-729 Me 2 g ae/ha alone), 0%. In addition, the “% Visual Injury, Obs” value in [8] (XDE-729 Me 5 g ae/ha alone) worked out at 53%.

Regarding `COc1c(Cl)ccc(-c2cc(N)c(Cl)c(C(=O)O)n2)c1F` [XDE-729 (TEA)], the “% Visual Injury, Obs” value is listed as 64% in the experiment with CIRAR (Cirsium arvense) (XDE-729 TEA 8.8 g ae/ha alone); 8% in experiment [3] (27 DAA, XDE-729 TEA 35 g ae/ha alone); 10% with STEME (Stellaria media) (28 DAA, XDE-729 TEA 35 g ae/ha alone); 83% in experiment [4] (XDE-729 TEA 8.8 g ae/ha alone); 64% in the experiment with STAAN (Stachys annua) (XDE-729 TEA 8.8 g ae/ha alone).
